Assay results: the supplement of paper PMC10307832

Assays:
Assay in all cases: relative viability (nuclei count vs DMSO), 5 days (fraction); higher = more cells survive
COR-L 105 = system: COR-L 105
In short: (§1)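 Relative viability equals treated-well nuclei counts divided by vehicle-well nuclei counts. Counts came from 4× images of lung cancer cell lines grown in 1536-well plates for 5 days after pin-tool dosing on the day after seeding. Dosing used one drug alone or a fixed anchor-drug dose plus five library-drug doses (not always all listed) in √10 steps, and values are medians of duplicate plates.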

EMC-BAC-2 = system: EMC-BAC-2
In short: as §1

NCI-H727 = system: NCI-H727
In short: as §1

NCI-H1395 = system: NCI-H1395
In short: as §1

CAL-12T = system: CAL-12T
In short: as §1

SK-LU-1 = system: SK-LU-1
In short: as §1

HCC-366 = system: HCC-366
In short: as §1

HOP-62 = system: HOP-62
In short: as §1

NCI-H1437 = system: NCI-H1437
In short: as §1

NCI-H1755 = system: NCI-H1755
In short: as §1

HARA = system: HARA
In short: as §1

A-427 = system: A-427
In short: as §1

NCI-H1792 = system: NCI-H1792
In short: as §1

NCI-H2228 = system: NCI-H2228
In short: as §1

NCI-H2009 = system: NCI-H2009
In short: as §1

NCI-H1915 = system: NCI-H1915
In short: as §1

NCI-H23 = system: NCI-H23
In short: as §1

SW 1573 = system: SW 1573
In short: as §1

NCI-H460 = system: NCI-H460
In short: as §1

HCC-827 = system: HCC-827
In short: as §1

`Nc1ccn([C@@H]2O[C@H](CO)[C@@H](O)[C@@H]2O)c(=O)n1` [Cytarabine] + CC1(C)CCC(c2ccc(Cl)cc2)=C(CN2CCN(c3ccc(C(=O)NS(=O)(=O)c4ccc(N[C@H](CCN5CCOCC5)CSc5ccccc5)c(S(=O)(=O)C(F)(F)F)c4)cc3)CC2)C1 [Navitoclax] (partner 0.5 µM) gave a relative viability (COR-L 105; first compound 0.005 µM) of 0.699, a relative viability (COR-L 105; first compound 0.01581 µM) of 0.795 and a relative viability (COR-L 105; first compound 0.05 µM) of 0.588. It also gave a relative viability (COR-L 105; first compound 0.1581 µM) of 0.435, a relative viability (COR-L 105; first compound 0.5 µM) of 0.34 and a relative viability (EMC-BAC-2; first compound 0.005 µM) of 0.843. For the same molecule, the relative viability (EMC-BAC-2; first compound 0.01581 µM) was 0.987, the relative viability (EMC-BAC-2; first compound 0.05 µM) was 0.789 and the relative viability (EMC-BAC-2; first compound 0.1581 µM) was 0.243. The relative viability (EMC-BAC-2; first compound 0.5 µM) was 0.19, the relative viability (NCI-H727; first compound 0.005 µM) was 0.372 and the relative viability (NCI-H727; first compound 0.01581 µM) was 0.295. For the same molecule, the relative viability (NCI-H727; first compound 0.05 µM) was 0.238, the relative viability (NCI-H727; first compound 0.1581 µM) was 0.181 and the relative viability (NCI-H727; first compound 0.5 µM) was 0.182. It also gave a relative viability (NCI-H1395; first compound 0.005 µM) of 1.2, a relative viability (NCI-H1395; first compound 0.01581 µM) of 0.849 and a relative viability (NCI-H1395; first compound 0.05 µM) of 0.65. For the same molecule, the relative viability (NCI-H1395; first compound 0.1581 µM) was 0.48, the relative viability (NCI-H1395; first compound 0.5 µM) was 0.368 and the relative viability (CAL-12T; first compound 0.005 µM) was 1.24. It also gave a relative viability (CAL-12T; first compound 0.01581 µM) of 1.4, a relative viability (CAL-12T; first compound 0.05 µM) of 1.13 and a relative viability (CAL-12T; first compound 0.1581 µM) of 0.598. For the same molecule, the relative viability (CAL-12T; first compound 0.5 µM) was 0.244, the relative viability (SK-LU-1; first compound 0.005 µM) was 0.775 and the relative viability (SK-LU-1; first compound 0.01581 µM) was 0.703. For the same molecule, the relative viability (SK-LU-1; first compound 0.05 µM) was 0.34, the relative viability (SK-LU-1; first compound 0.1581 µM) was 0.266 and the relative viability (SK-LU-1; first compound 0.5 µM) was 0.179. The relative viability (HCC-366; first compound 0.005 µM) was 0.889, the relative viability (HCC-366; first compound 0.01581 µM) was 0.918 and the relative viability (HCC-366; first compound 0.05 µM) was 0.328. It also gave a relative viability (HCC-366; first compound 0.1581 µM) of 0.0444, a relative viability (HCC-366; first compound 0.5 µM) of 0.0177 and a relative viability (HOP-62; first compound 0.005 µM) of 0.946. The relative viability (HOP-62; first compound 0.01581 µM) was 0.405, the relative viability (HOP-62; first compound 0.05 µM) was 0.342 and the relative viability (HOP-62; first compound 0.1581 µM) was 0.104. For the same molecule, the relative viability (HOP-62; first compound 0.5 µM) was 0.0809, the relative viability (NCI-H1437; first compound 0.005 µM) was 0.875 and the relative viability (NCI-H1437; first compound 0.01581 µM) was 0.637. The relative viability (NCI-H1437; first compound 0.05 µM) was 0.469, the relative viability (NCI-H1437; first compound 0.1581 µM) was 0.214 and the relative viability (NCI-H1437; first compound 0.5 µM) was 0.175. For the same molecule, the relative viability (NCI-H1755; first compound 0.005 µM) was 0.914, the relative viability (NCI-H1755; first compound 0.01581 µM) was 0.821 and the relative viability (NCI-H1755; first compound 0.05 µM) was 0.583. For the same molecule, the relative viability (NCI-H1755; first compound 0.1581 µM) was 0.201, the relative viability (NCI-H1755; first compound 0.5 µM) was 0.194 and the relative viability (HARA; first compound 0.005 µM) was 1.09. For the same molecule, the relative viability (HARA; first compound 0.01581 µM) was 0.593, the relative viability (HARA; first compound 0.05 µM) was 0.302 and the relative viability (HARA; first compound 0.1581 µM) was 0.178. The relative viability (HARA; first compound 0.5 µM) was 0.131, the relative viability (A-427; first compound 0.005 µM) was 0.813 and the relative viability (A-427; first compound 0.01581 µM) was 0.496. The relative viability (A-427; first compound 0.05 µM) was 0.257, the relative viability (A-427; first compound 0.1581 µM) was 0.154 and the relative viability (A-427; first compound 0.5 µM) was 0.16. The relative viability (NCI-H1792; first compound 0.005 µM) was 0.339, the relative viability (NCI-H1792; first compound 0.01581 µM) was 0.55 and the relative viability (NCI-H1792; first compound 0.05 µM) was 0.223. The relative viability (NCI-H1792; first compound 0.1581 µM) was 0.304, the relative viability (NCI-H1792; first compound 0.5 µM) was 0.246 and the relative viability (NCI-H2228; first compound 0.005 µM) was 0.504. The relative viability (NCI-H2228; first compound 0.01581 µM) was 0.544, the relative viability (NCI-H2228; first compound 0.05 µM) was 0.0741 and the relative viability (NCI-H2228; first compound 0.1581 µM) was 0.0929. The relative viability (NCI-H2228; first compound 0.5 µM) was 0.0928, the relative viability (NCI-H2009; first compound 0.005 µM) was 1.13 and the relative viability (NCI-H2009; first compound 0.01581 µM) was 1.21. It also gave a relative viability (NCI-H2009; first compound 0.05 µM) of 0.99, a relative viability (NCI-H2009; first compound 0.1581 µM) of 0.898 and a relative viability (NCI-H2009; first compound 0.5 µM) of 0.31. It also gave a relative viability (NCI-H1915; first compound 0.005 µM) of 0.799, a relative viability (NCI-H1915; first compound 0.01581 µM) of 0.719 and a relative viability (NCI-H1915; first compound 0.05 µM) of 0.714. For the same molecule, the relative viability (NCI-H1915; first compound 0.1581 µM) was 0.411, the relative viability (NCI-H1915; first compound 0.5 µM) was 0.386 and the relative viability (NCI-H23; first compound 0.005 µM) was 0.753. It also gave a relative viability (NCI-H23; first compound 0.01581 µM) of 0.551, a relative viability (NCI-H23; first compound 0.05 µM) of 0.394 and a relative viability (NCI-H23; first compound 0.1581 µM) of 0.206. The relative viability (NCI-H23; first compound 0.5 µM) was 0.173, the relative viability (SW 1573; first compound 0.005 µM) was 0.979 and the relative viability (SW 1573; first compound 0.01581 µM) was 0.79. For the same molecule, the relative viability (SW 1573; first compound 0.05 µM) was 0.556, the relative viability (SW 1573; first compound 0.1581 µM) was 0.223 and the relative viability (SW 1573; first compound 0.5 µM) was 0.103. It also gave a relative viability (NCI-H460; first compound 0.005 µM) of 1.06, a relative viability (NCI-H460; first compound 0.01581 µM) of 1.16 and a relative viability (NCI-H460; first compound 0.05 µM) of 0.323. For the same molecule, the relative viability (NCI-H460; first compound 0.1581 µM) was 0.0167, the relative viability (NCI-H460; first compound 0.5 µM) was 0.0173 and the relative viability (HCC-827; first compound 0.005 µM) was 0.615. For the same molecule, the relative viability (HCC-827; first compound 0.01581 µM) was 0.529, the relative viability (HCC-827; first compound 0.05 µM) was 0.398 and the relative viability (HCC-827; first compound 0.1581 µM) was 0.264. It also gave a relative viability (HCC-827; first compound 0.5 µM) of 0.252.
